“And” between values parts separate entries of the source, which are not always exact repeats. Equal values may be shown once.

The target in the test is Genome polyprotein (dengue virus type 2, UniProt P29990). The class given is functional, Thailand/16681/1984.
Genome polyprotein, sequence (P29990 1346-1475 limits assumed): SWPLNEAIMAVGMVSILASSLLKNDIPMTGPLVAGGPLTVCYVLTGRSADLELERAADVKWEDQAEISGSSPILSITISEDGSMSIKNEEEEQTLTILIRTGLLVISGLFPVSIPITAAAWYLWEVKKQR
Genome polyprotein, sequence (P29990 1476-2093 limits assumed): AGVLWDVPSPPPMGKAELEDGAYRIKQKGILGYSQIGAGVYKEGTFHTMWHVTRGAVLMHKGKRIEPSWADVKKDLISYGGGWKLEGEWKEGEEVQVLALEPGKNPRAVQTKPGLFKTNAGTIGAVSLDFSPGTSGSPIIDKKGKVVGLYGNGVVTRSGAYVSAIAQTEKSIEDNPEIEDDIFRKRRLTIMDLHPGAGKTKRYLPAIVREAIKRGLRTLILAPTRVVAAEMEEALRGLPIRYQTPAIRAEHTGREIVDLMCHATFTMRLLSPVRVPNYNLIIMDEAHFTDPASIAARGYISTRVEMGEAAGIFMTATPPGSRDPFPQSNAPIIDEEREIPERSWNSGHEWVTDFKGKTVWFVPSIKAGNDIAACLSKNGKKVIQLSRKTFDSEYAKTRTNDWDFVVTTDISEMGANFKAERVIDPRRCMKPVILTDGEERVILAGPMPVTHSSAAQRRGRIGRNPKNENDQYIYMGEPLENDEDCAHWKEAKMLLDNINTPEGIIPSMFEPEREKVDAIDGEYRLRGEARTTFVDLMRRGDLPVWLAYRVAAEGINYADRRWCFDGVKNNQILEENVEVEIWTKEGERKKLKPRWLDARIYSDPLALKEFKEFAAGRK
What is called IC50 is the concentration that inhibits the measured activity by half. The compound `CCn1c(=O)c(N2CCCC[C@H](N3CCCC3)C2)nc2ccccc21` came in with an IC50 of over 99.5 µM. Next, `N#Cc1ccccc1-c1ccc([C@H](NC(=O)OCc2ccccc2)C(=O)Nc2cccc(CN)c2)cc1`: 18.6 µM; `COc1ncccc1-c1ccc([C@@H](NC(=O)OCc2ccccc2)C(=O)Nc2cccc(CN)c2)cc1`: 23 µM.

`CCNC(=O)[C@@H](NC(=O)OCc1ccccc1)c1ccc(OCc2ccccc2)cc1` had an IC50 of over 99.5 µM. Next, `CCn1c(=O)c(N2C[C@H]3C[C@@H](O)CC[C@H]3C2)nc2ccccc21`: over 99.5 µM; `NCc1cccc(NC(=O)[C@@H](NC(=O)OCc2ccccc2)c2ccc(-c3ccc4scnc4c3)cc2)c1`: 42.9 µM. Next, `Cn1cc(Nc2ccc(S(=O)(=O)Nc3ccc(Cl)cc3C(=O)O)cn2)cn1`: over 99.5 µM; `O=C(NS(=O)(=O)C1CC1)c1cc(Cl)ccc1NS(=O)(=O)c1ccc(Oc2ccccc2Cl)cc1`: 7.33 µM. Next, `CN1Cc2ccc(CNC(=O)[C@@H](NC(=O)OCc3ccccc3)c3ccc(OCc4ccccc4)cc3)cc2C1`: over 99.5 µM; `CC[C@H]1CN2CCC[C@H]2CN1c1nc2ccccc2n(CC)c1=O`: over 99.5 µM.

`CCn1c(=O)c(N2C[C@@H]3CN(C4CCC4)C[C@@H]3C2)nc2ccccc21`: the IC50 was over 99.5 µM.

Compound `CCn1c(=O)c(N2CC3(CCC3)C[C@@H]2C)nc2ccccc21` gave a half-inhibitory concentration (IC50) of over 99.5 µM. Next, `CCn1cc(-c2cccc(CN(C)C)c2)nc(N2CC[C@@H](CO)C2)c1=O`: over 99.5 µM; `CC(C)c1cc(-c2ccc([C@@H](NC(=O)OCc3ccccc3)C(=O)Nc3cccc(CN)c3)cc2)on1`: over 99.5 µM. As for `CCn1cc(-c2ccccc2C(C)C)nc(N2CC[C@@H](CO)C2)c1=O`, the figure is over 99.5 µM; as for `NCc1cccc(NC(=O)[C@@H](NC(=O)OCc2ccccc2)c2ccc(-c3ccnc4[nH]ccc34)cc2)c1`, over 99.5 µM. Compound `CCn1cc(-c2ccccc2N)nc(N2CC[C@@H](CO)C2)c1=O` showed an IC50 of over 99.5 µM. As for `CCn1c(=O)c(N2C[C@@H]3CS(=O)(=O)C[C@@H]3C2)nc2ccccc21`, the figure is over 99.5 µM; as for `CCn1c(=O)c(N2CC[C@@H](CN3CCCCC3)C2)nc2ccccc21`, over 99.5 µM. `Cc1noc(C)c1-c1ccc([C@@H](NC(=O)OCc2ccccc2)C(=O)Nc2cccc(CN)c2)cc1` yielded an IC50 of over 99.5 µM. On to `O=C(O)c1cc(Cl)ccc1NS(=O)(=O)c1ccc(N[C@H]2CCCOC2)nc1`, for which the IC50 was over 99.5 µM. As for `CCn1c(=O)c(N2CCC[C@H]2c2noc(C)n2)nc2ccccc21`, the figure is over 99.5 µM; as for `Cc1nc(-c2ccc([C@@H](NC(=O)OCc3ccccc3)C(=O)Nc3cccc(CN)c3)cc2)cs1`, over 99.5 µM; as for `NCc1cccc(NC(=O)[C@@H](NC(=O)OCc2ccccc2)c2ccc(C3=CCCOC3)cc2)c1`, over 99.5 µM. Next, `CN1CC[C@H](C2CCN(S(=O)(=O)c3cc(F)cc(C(=O)O)c3)CC2)C1`: over 99.5 µM.

`CCn1cc(C(=O)O)nc(N2CC[C@@H](CO)C2)c1=O` yielded an IC50 of over 99.5 µM.

With `CCn1c(=O)c(N2CCC[C@H]2c2cncc(Br)c2)nc2ccccc21`, the IC50 is over 99.5 µM. `O=C(N[C@@H](C(=O)NCc1c[nH]cn1)c1ccc(OCc2ccccc2)cc1)OCc1ccccc1`: the IC50 was over 99.5 µM. Next, `Cc1ccc(COc2ccc(S(=O)(=O)Nc3ccc(Cl)cc3C(=O)O)cc2)cc1`: 9.45 µM; `O=C(N[C@@H](C(=O)NC1CCCCC1)c1ccc(OCc2ccccc2)cc1)OCc1ccccc1`: over 99.5 µM; `NCc1cccc(NC(=O)[C@@H](NC(=O)OCc2ccccc2)c2ccc(-c3ccc4cn[nH]c4c3)cc2)c1`: 6.06 µM and 6 µM and 5.75 µM. Next, `CCn1c(=O)c(N2CC(S(=O)(=O)N3CCCC3)C2)nc2ccccc21`: over 99.5 µM.

Turning to `NCc1cccc(NC(=O)[C@@H](NC(=O)OCc2ccccc2)c2ccc(-c3cccc4nonc34)cc2)c1`, the IC50 is 11.6 µM and 5.73 µM.

For the compound `CS(=O)(=O)NC(=O)c1cc(Cl)ccc1NS(=O)(=O)c1ccc(Oc2ccccc2Cl)cc1`, the IC50 came to 12.2 µM. As for `O=C(N[C@@H](C(=O)NCc1ccncc1)c1ccc(OCc2ccccc2)cc1)OCc1ccccc1`, the figure is over 99.5 µM. As for `CCn1c(=O)c(N2CC[C@@H](Cc3ccncc3)C2)nc2ccccc21`, the figure is over 99.5 µM; as for `CCc1ccccc1-c1ccc([C@@H](NC(=O)OCc2ccccc2)C(=O)Nc2cccc(CN)c2)cc1`, 9.17 µM.

On to `CCn1c(=O)c(N2CC3(CCCCC3)C[C@H]2CO)nc2ccccc21`, for which the IC50 is over 99.5 µM.

In the case of `NCc1cccc(NC(=O)[C@@H](NC(=O)OCc2ccccc2)c2ccc(-c3ccc(N)nc3)cc2)c1`, the IC50 was over 99.5 µM. As for `Cn1cc(-c2ccc([C@@H](NC(=O)OCc3ccccc3)C(=O)Nc3cccc(CN)c3)cc2)cn1`, the figure is over 99.5 µM. As for `CCn1c(=O)c(N2C[C@H]3CN(C)CC[C@H]3C2)nc2ccccc21`, the figure is over 99.5 µM. As for `COc1ccc(COc2ccc(S(=O)(=O)Nc3ccc(Cl)cc3C(=O)O)cc2)nc1`, the figure is 74.1 µM. `CC(C)(C)c1ncc(-c2ccc([C@@H](NC(=O)OCc3ccccc3)C(=O)Nc3cccc(CN)c3)cc2)o1` displayed an IC50 of over 99.5 µM. As for `CCn1c(=O)c(N2CC[C@]3(CCCN(C)C3)C2)nc2ccccc21`, the figure is over 99.5 µM. Next, `CCn1c(=O)c(N2C[C@H]3OCCN(C(C)=O)[C@H]3C2)nc2ccccc21`: over 99.5 µM; `NCc1cccc(NC(=O)[C@@H](NC(=O)OCc2ccccc2)c2cccc(OCc3cncnc3)c2)c1`: over 99.5 µM. In turn, `O=C(N[C@@H](C(=O)Nc1cccnc1)c1ccc(OCc2ccccc2)cc1)OCc1ccccc1` gave a 50% inhibitory concentration (IC50) of over 99.5 µM. Next, `CCn1cc(-c2ccc(S(C)(=O)=O)cc2)nc(N2CC[C@@H](CO)C2)c1=O`: over 99.5 µM; `CNc1nc2cc(-c3ccc4c(c3)C[C@H](N)C4)ccc2o1`: over 99.5 µM.

As for `NCc1cccc(NC(=O)[C@@H](NC(=O)OCc2ccccc2)c2ccc(-c3ccncc3F)cc2)c1`, the IC50 was over 99.5 µM. Next, `NCc1cccc(NC(=O)[C@@H](NC(=O)OCc2ccccc2)c2ccc(-c3cc4cccnc4s3)cc2)c1`: 6.07 µM; `COc1ccccc1-c1ccc([C@@H](NC(=O)OCc2ccccc2)C(=O)Nc2cccc(CN)c2)cc1`: over 99.5 µM. Take `CCn1cc(-c2ccc(CN(C)C)cc2)nc(N2CC[C@@H](CO)C2)c1=O`: the IC50 was over 99.5 µM.

Compound `Cc1n[nH]cc1-c1ccc([C@@H](NC(=O)OCc2ccccc2)C(=O)Nc2cccc(CN)c2)cc1` yielded an IC50 of over 99.5 µM. `Cn1cc(-c2ccc([C@@H](NC(=O)OCc3ccccc3)C(=O)Nc3cccc(CN)c3)cc2)ccc1=O` yielded an IC50 of over 99.5 µM. Next, `CCn1c(=O)c(N2CCC[C@H]2CN2CCCC2)nc2ccccc21`: over 99.5 µM; `CCn1cc(-c2cccc(-c3ccccc3)c2)nc(N2CC[C@@H](CO)C2)c1=O`: over 99.5 µM. As for `O=C(N[C@@H](C(=O)NCc1ccccn1)c1ccc(OCc2ccccc2)cc1)OCc1ccccc1`, the figure is over 99.5 µM; as for `CCn1cc(-c2cn(C)nc2C(F)(F)F)nc(N2CC[C@@H](CO)C2)c1=O`, over 99.5 µM; as for `CCn1c(=O)c(N2CC[C@H](N3CCN(C)CC3)C2)nc2ccccc21`, over 99.5 µM.

With `CCn1cc(-c2ccncc2F)nc(N2CC[C@@H](CO)C2)c1=O`, the IC50 was over 99.5 µM.

As to `CCn1c(=O)c(N2CCC[C@H]2c2ncccn2)nc2ccccc21`, the IC50 is over 99.5 µM.

(Values after ChEMBL document CHEMBL5604063, “ASAP - DENV-2 NS2B-NS3 protease fluorescence dose response” (2024).)
